# Experimental data taken from PMC5224920, “Assessing the mechanism and therapeutic potential of modulators of the human Mediator complex-associated protein kinases” (eLife, 2016).
# Test system: 12 single or co-culture in vitro tissue models of primary cells
# Test: Culture/co-culture cell model panel, extracellular biomarkers (DiscoveRx); on CCL2/MCP-1: reference of the scale not given here; on CD141/Thrombomodulin: reference of the scale not given here; on CD142/Tissue Factor: reference of the scale not given here; on CD38: reference of the scale not given here; on CD40: reference of the scale not given here; on CD69: reference of the scale not given here; on CXCL8/IL-8: reference of the scale not given here; on CXCL9/MIG: reference of the scale not given here; on IL-1alpha: reference of the scale not given here; on M-CSF: reference of the scale not given here; on SRB: reference of the scale not given here; on sPGE2: reference of the scale not given here; on sTNF-alpha: reference of the scale not given here
# Type: cell-based, human
# [1] = HDF3CGF stimulated fibroblasts, 4.12E1 nM
# [2] = HDF3CGF stimulated fibroblasts, 4.57E0 nM
# [3] = HPNo Huvec+PBMC unstimulated, 1.00E4 nM
# [4] = HPNo Huvec+PBMC unstimulated, 1.11E3 nM
# [5] = HPNo Huvec+PBMC unstimulated, 1.23E2 nM
# [6] = HPNo Huvec+PBMC unstimulated, 1.37E1 nM
# [7] = HPNo Huvec+PBMC unstimulated, 3.33E3 nM
# [8] = HPNo Huvec+PBMC unstimulated, 3.70E2 nM
# [9] = HPNo Huvec+PBMC unstimulated, 4.12E1 nM
# [10] = HPNo Huvec+PBMC unstimulated, 4.57E0 nM
smiles,measurement,setting,value
Cc1n[nH]c2ncc(C(=O)N3CCC[C@H]3c3ccc(Cl)cc3)cc12 [CMPD4],CXCL9/MIG,[1],-0.024
same,CXCL10/IP-10,[1],0.059
same,CXCL11/I-TAC,[1],-0.035
same,Collagen I,[1],0.021
same,Collagen III,[1],0.082
same,EGFR,[1],-0.094
same,M-CSF,[1],-0.046
same,MMP-1,[1],-0.00129
same,PAI-I,[1],0.033
same,Proliferation_72hr,[1],-0.178
same,SRB,[1],0.010
same,TIMP-1,[1],-0.070
same,TIMP-2,[1],0.099
same,CCL2/MCP-1,[2],-0.020
same,CD54/ICAM-1,[2],-0.041
same,CD106/VCAM-1,[2],0.047
same,CXCL8/IL-8,[2],-0.013
same,CXCL9/MIG,[2],0.00852
same,CXCL10/IP-10,[2],0.000432
same,CXCL11/I-TAC,[2],-0.0056
same,Collagen I,[2],0.023
same,Collagen III,[2],0.081
same,EGFR,[2],-0.043
same,M-CSF,[2],-0.051
same,MMP-1,[2],0.013
same,PAI-I,[2],-0.032
same,Proliferation_72hr,[2],-0.119
same,SRB,[2],0.018
same,TIMP-1,[2],-0.010
same,TIMP-2,[2],0.136
same,CCL2/MCP-1,[3],0.039
same,CD38,[3],0.081
same,CD40,[3],-0.033
same,CD106/VCAM-1,[3],0.342
same,CD141/Thrombomodulin,[3],0.00066
same,CD142/Tissue Factor,[3],0.063
same,CCL2/MCP-1,[4],0.053
same,CD38,[4],-0.040
same,CD40,[4],-0.130
same,CD106/VCAM-1,[4],0.396
same,CD141/Thrombomodulin,[4],0.021
same,CD142/Tissue Factor,[4],0.064
same,CCL2/MCP-1,[5],0.040
same,CD38,[5],-0.022
same,CD40,[5],-0.171
same,CD106/VCAM-1,[5],0.307
same,CD141/Thrombomodulin,[5],0.025
same,CD142/Tissue Factor,[5],0.061
same,CCL2/MCP-1,[6],0.053
same,CD38,[6],-0.066
same,CD40,[6],-0.106
same,CD106/VCAM-1,[6],0.175
same,CD141/Thrombomodulin,[6],0.022
same,CD142/Tissue Factor,[6],0.010
same,CCL2/MCP-1,[7],0.058
same,CD38,[7],0.024
same,CD40,[7],-0.093
same,CD106/VCAM-1,[7],0.305
same,CD141/Thrombomodulin,[7],0.019
same,CD142/Tissue Factor,[7],0.022
same,CCL2/MCP-1,[8],0.274
same,CD38,[8],-0.028
same,CD40,[8],-0.186
same,CD106/VCAM-1,[8],0.375
same,CD141/Thrombomodulin,[8],0.045
same,CD142/Tissue Factor,[8],0.045
same,CCL2/MCP-1,[9],0.148
same,CD38,[9],-0.052
same,CD40,[9],-0.089
same,CD106/VCAM-1,[9],0.250
same,CD141/Thrombomodulin,[9],0.031
same,CD142/Tissue Factor,[9],0.096
same,CCL2/MCP-1,[10],-0.076
same,CD38,[10],-0.060
same,CD40,[10],-0.075
same,CD106/VCAM-1,[10],0.144
same,CD141/Thrombomodulin,[10],0.022
same,CD142/Tissue Factor,[10],0.017
same,CD62E/E-Selectin,"HPNo, 1.00E4 nM",0.080
same,CD69,"HPNo, 1.00E4 nM",0.150
same,CXCL8/IL-8,"HPNo, 1.00E4 nM",0.030
same,CXCL9/MIG,"HPNo, 1.00E4 nM",-0.025
same,M-CSF,"HPNo, 1.00E4 nM",0.075
same,SRB,"HPNo, 1.00E4 nM",-0.053
same,sPGE2,"HPNo, 1.00E4 nM",0.066
same,sTNF-alpha,"HPNo, 1.00E4 nM",-0.036
same,CD62E/E-Selectin,"HPNo, 1.11E3 nM",0.014
same,CD69,"HPNo, 1.11E3 nM",0.063
same,CXCL8/IL-8,"HPNo, 1.11E3 nM",-0.048
same,CXCL9/MIG,"HPNo, 1.11E3 nM",-0.091
same,M-CSF,"HPNo, 1.11E3 nM",0.074
same,SRB,"HPNo, 1.11E3 nM",-0.034
same,sPGE2,"HPNo, 1.11E3 nM",0.043
same,sTNF-alpha,"HPNo, 1.11E3 nM",-0.019
same,CD62E/E-Selectin,"HPNo, 1.23E2 nM",-0.027
same,CD69,"HPNo, 1.23E2 nM",0.039
same,CXCL8/IL-8,"HPNo, 1.23E2 nM",0.011
same,CXCL9/MIG,"HPNo, 1.23E2 nM",-0.025
same,M-CSF,"HPNo, 1.23E2 nM",-0.084
same,SRB,"HPNo, 1.23E2 nM",-0.005
same,sPGE2,"HPNo, 1.23E2 nM",0.030
same,sTNF-alpha,"HPNo, 1.23E2 nM",0.010
same,CD62E/E-Selectin,"HPNo, 1.37E1 nM",-0.035
same,CD69,"HPNo, 1.37E1 nM",-0.005
same,CXCL8/IL-8,"HPNo, 1.37E1 nM",-0.023
same,CXCL9/MIG,"HPNo, 1.37E1 nM",-0.068
same,M-CSF,"HPNo, 1.37E1 nM",0.015
same,SRB,"HPNo, 1.37E1 nM",0.027
same,sPGE2,"HPNo, 1.37E1 nM",0.00254
same,sTNF-alpha,"HPNo, 1.37E1 nM",0.00645
same,CD62E/E-Selectin,"HPNo, 3.33E3 nM",-0.020
same,CD69,"HPNo, 3.33E3 nM",0.040
same,CXCL8/IL-8,"HPNo, 3.33E3 nM",-0.040
same,CXCL9/MIG,"HPNo, 3.33E3 nM",0.018
same,M-CSF,"HPNo, 3.33E3 nM",0.034
same,SRB,"HPNo, 3.33E3 nM",-0.058
same,sPGE2,"HPNo, 3.33E3 nM",0.038
same,sTNF-alpha,"HPNo, 3.33E3 nM",-0.021
same,CD62E/E-Selectin,"HPNo, 3.70E2 nM",0.026
same,CD69,"HPNo, 3.70E2 nM",0.012
same,CXCL8/IL-8,"HPNo, 3.70E2 nM",-0.025
same,CXCL9/MIG,"HPNo, 3.70E2 nM",-0.067
same,M-CSF,"HPNo, 3.70E2 nM",-0.063
same,SRB,"HPNo, 3.70E2 nM",-0.017
same,sPGE2,"HPNo, 3.70E2 nM",0.040
same,sTNF-alpha,"HPNo, 3.70E2 nM",-0.022
same,CD62E/E-Selectin,"HPNo, 4.12E1 nM",-0.00169
same,CD69,"HPNo, 4.12E1 nM",0.020
same,CXCL8/IL-8,"HPNo, 4.12E1 nM",0.023
same,CXCL9/MIG,"HPNo, 4.12E1 nM",-0.041
same,M-CSF,"HPNo, 4.12E1 nM",-0.031
same,SRB,"HPNo, 4.12E1 nM",-0.00266
same,sPGE2,"HPNo, 4.12E1 nM",0.016
same,sTNF-alpha,"HPNo, 4.12E1 nM",0.015
same,CD62E/E-Selectin,"HPNo, 4.57E0 nM",0.045
same,CD69,"HPNo, 4.57E0 nM",0.075
same,CXCL8/IL-8,"HPNo, 4.57E0 nM",0.031
same,CXCL9/MIG,"HPNo, 4.57E0 nM",-0.000203
same,M-CSF,"HPNo, 4.57E0 nM",0.012
same,SRB,"HPNo, 4.57E0 nM",0.035
same,sPGE2,"HPNo, 4.57E0 nM",0.00462
same,sTNF-alpha,"HPNo, 4.57E0 nM",0.128
same,CCL2/MCP-1,"LPS Huvec+PBMC, 1.00E4 nM",-0.081
same,CD40,"LPS Huvec+PBMC, 1.00E4 nM",-0.109
same,CD62E/E-Selectin,"LPS Huvec+PBMC, 1.00E4 nM",0.010
same,CD69,"LPS Huvec+PBMC, 1.00E4 nM",0.030
same,CD106/VCAM-1,"LPS Huvec+PBMC, 1.00E4 nM",0.079
same,CD141/Thrombomodulin,"LPS Huvec+PBMC, 1.00E4 nM",0.127
same,CD142/Tissue Factor,"LPS Huvec+PBMC, 1.00E4 nM",0.079
same,CXCL8/IL-8,"LPS Huvec+PBMC, 1.00E4 nM",-0.169
same,IL-1alpha,"LPS Huvec+PBMC, 1.00E4 nM",0.125
same,M-CSF,"LPS Huvec+PBMC, 1.00E4 nM",0.029
same,SRB,"LPS Huvec+PBMC, 1.00E4 nM",-0.141
same,sPGE2,"LPS Huvec+PBMC, 1.00E4 nM",0.164
same,sTNF-alpha,"LPS Huvec+PBMC, 1.00E4 nM",-0.051
same,CCL2/MCP-1,"LPS Huvec+PBMC, 1.11E3 nM",-0.044
same,CD40,"LPS Huvec+PBMC, 1.11E3 nM",-0.137
same,CD62E/E-Selectin,"LPS Huvec+PBMC, 1.11E3 nM",0.000345
same,CD69,"LPS Huvec+PBMC, 1.11E3 nM",0.043
same,CD106/VCAM-1,"LPS Huvec+PBMC, 1.11E3 nM",0.105
same,CD141/Thrombomodulin,"LPS Huvec+PBMC, 1.11E3 nM",0.090
same,CD142/Tissue Factor,"LPS Huvec+PBMC, 1.11E3 nM",0.097
same,CXCL8/IL-8,"LPS Huvec+PBMC, 1.11E3 nM",-0.191
